Activity calls are given as the source filed them. The rule behind the calls is not given here.
What was measured:
SW780 [1] = experiment: Upregulation of intracellular cathepsin B activity in human SW780 cells; format: functional, cell-based
SW780 [2] = experiment: Induction of apoptosis in human SW780 cells assessed as viable cells at 0.2 uM incubated for 24 hrs by Annexin V-FITC/PI staining based flow cytometry (reference value: 92.3 %); format: functional; conditions: read-out: Activity
SW780 [3] = experiment: Induction of apoptosis in human SW780 cells assessed as late apoptotic cells at 0.5 uM incubated for 24 hrs by Annexin V-FITC/PI staining based flow cytometry (reference value: 2.30 %); format: functional
SW780 [4] = experiment: Induction of autophagy in human SW780 cells transfected with GFP-LC3 assessed as formation of autophagosomes incubated for 6 hrs in presence of Baf-A1 by laser scanning confocal microscopic analysis; format: functional, cell-based
Heat shock protein HSP90 [5] = molecular target: T1, Heat shock protein HSP90 (Homo sapiens, UniProt P07900+P08238); experiment: Inhibition of Hsp90 (unknown origin) by TR-FRET assay; format: protein assay
J82 [6] = experiment: Antitumor activity against human J82 cells xenografted in nude Balb/c mouse assessed as decrease in mTOR phosphorylation level at 30 mg/kg, po administered everyday for 17 days by IHC analysis; format: functional, organism-based; conditions: time 17.0 day
SW780 [7] = experiment: Induction of apoptosis in human SW780 cells assessed as late apoptotic cells at 0.2 uM incubated for 24 hrs by Annexin V-FITC/PI staining based flow cytometry (reference value: 2.30 %); format: functional
SW780 [8] = experiment: Downregulation of phosphorylated mTOR level in human SW780 cells at 0.2 to 0.5 uM by Western blot analysis; format: functional, cell-based; conditions: dose 0.2-0.5 µM
SW780 [9] = experiment: Induction of apoptosis in human SW780 cells assessed as early apoptotic cells at 0.2 uM incubated for 24 hrs by Annexin V-FITC/PI staining based flow cytometry (reference value: 1.43 %); format: functional
SW780 [10] = experiment: Induction of apoptosis in human SW780 cells assessed as early apoptotic cells at 0.5 uM incubated for 24 hrs by Annexin V-FITC/PI staining based flow cytometry (reference value: 1.43 %); format: functional
[11] = molecular target: T2, Serine/threonine-protein kinase mTOR (Homo sapiens, UniProt P42345); experiment: Inhibition of mTOR (unknown origin) by kinase profiling assay
SW780 [12] = experiment: Upregulation of Hsp70 level in human SW780 cells by Western blot analysis; format: functional, cell-based; conditions: dose 0.2-0.5 µM
SW780 [13] = experiment: Antiproliferative activity against human SW780 cells assessed as inhibition of cell proliferation by CCK8 assay; format: functional, cell-based
SW780 [14] = experiment: Induction of autophagy in human SW780 cells assessed as formation of autophagic vacuoles in cytoplasm by TEM analysis; format: functional, cell-based
SW780 [15] = experiment: Antiproliferative activity against human SW780 cells assessed as inhibition of cell proliferation at 1 uM by CCK8 assay relative to control; format: functional
T-24 [16] = experiment: Antiproliferative activity against human T24 cells assessed as inhibition of cell proliferation at 1 uM by CCK8 assay relative to control; format: functional
SW780 [17] = experiment: Upregulation of LC3-II level in human SW780 cells at 0.2 to 0.5 uM by Western blot analysis; format: functional, cell-based; conditions: dose 0.2-0.5 µM
SW780 [18] = experiment: Induction of autophagy in human SW780 cells transfected with GFP-LC3 assessed as formation of autophagosomes at 0.5 uM incubated for 24 hrs by laser scanning confocal microscopic analysis; format: functional, cell-based
SW780 [19] = experiment: Upregulation of cytochrome C level in human SW780 cells at 0.2 to 0.5 uM by Western blot analysis; format: functional, cell-based; conditions: dose 0.2-0.5 µM
J82 [20] = experiment: Antitumor activity against human J82 cells xenografted in nude Balb/c mouse assessed as increase in LC3-II level at 30 mg/kg, po administered everyday for 17 days by IHC analysis; format: functional, organism-based; conditions: time 17.0 day
Heat shock protein HSP90 [21] = molecular target: T1, Heat shock protein HSP90; conditions: dose 100.0 nM
Description: Inhibition of Hsp90 (unknown origin) at 100 nM by TR-FRET assay relative to control

J82 [22] = experiment: Antitumor activity against human J82 cells xenografted in nude Balb/c mouse assessed as […] at 30 mg/kg, po administered everyday for 17 days by IHC analysis; format: functional, organism-based; conditions: time 17.0 day
SW780 [23] = experiment: Antiproliferative activity against human SW780 cells assessed as cell survival at 0.5 uM measured after 72 hrs by CCK8 assay relative to control; format: functional; conditions: read-out: Activity
J82 [24] = experiment: Antiproliferative activity against human J82 cells assessed as inhibition of cell proliferation by CCK8 assay; format: functional, cell-based
SW780 [25] = experiment: Induction of apoptosis in human SW780 cells assessed as necrotic cells at 0.5 uM incubated for 24 hrs by Annexin V-FITC/PI staining based flow cytometry (reference value: 92.3 %); format: functional
[26] = Toxicity in nude Balb/c mouse xenografted with human J82 cells assessed as body weight reduction at 30 mg/kg, po administered everyday for 17 days; format: organism-based; conditions: in vivo, 408 h, time 17 day
J82 [27] = experiment: Antiproliferative activity against human J82 cells assessed as inhibition of cell proliferation at 1 uM by CCK8 assay relative to control; format: functional
SW780 [28] = experiment: Upregulation of intracellular cathepsin B activity in human SW780 cells in presence of Baf-A1; format: functional, cell-based
SW780 [29] = experiment: Downregulation of CDC2 level in human SW780 cells at 0.2 to 0.5 uM by Western blot analysis; format: functional, cell-based; conditions: dose 0.2-0.5 µM
SW780 [30] = experiment: Induction of autophagy in human SW780 cells transfected with GFP-LC3 assessed as formation of autophagosomes incubated for 6 hrs in presence of 3-MA by laser scanning confocal microscopic analysis; format: functional, cell-based
T-24 [31] = experiment: Antiproliferative activity against human T24 cells assessed as inhibition of cell proliferation by CCK8 assay; format: functional, cell-based
[32] = molecular target: Phosphatidylinositol 4,5-bisphosphate 3-kinase catalytic subunit alpha isoform (Homo sapiens, UniProt P42336); experiment: Inhibition of PI3Kalpha (unknown origin) by kinase profiling assay
Sequence of Phosphatidylinositol 4,5-bisphosphate 3-kinase catalytic subunit alpha isoform (P42336 whole entry, canonical isoform): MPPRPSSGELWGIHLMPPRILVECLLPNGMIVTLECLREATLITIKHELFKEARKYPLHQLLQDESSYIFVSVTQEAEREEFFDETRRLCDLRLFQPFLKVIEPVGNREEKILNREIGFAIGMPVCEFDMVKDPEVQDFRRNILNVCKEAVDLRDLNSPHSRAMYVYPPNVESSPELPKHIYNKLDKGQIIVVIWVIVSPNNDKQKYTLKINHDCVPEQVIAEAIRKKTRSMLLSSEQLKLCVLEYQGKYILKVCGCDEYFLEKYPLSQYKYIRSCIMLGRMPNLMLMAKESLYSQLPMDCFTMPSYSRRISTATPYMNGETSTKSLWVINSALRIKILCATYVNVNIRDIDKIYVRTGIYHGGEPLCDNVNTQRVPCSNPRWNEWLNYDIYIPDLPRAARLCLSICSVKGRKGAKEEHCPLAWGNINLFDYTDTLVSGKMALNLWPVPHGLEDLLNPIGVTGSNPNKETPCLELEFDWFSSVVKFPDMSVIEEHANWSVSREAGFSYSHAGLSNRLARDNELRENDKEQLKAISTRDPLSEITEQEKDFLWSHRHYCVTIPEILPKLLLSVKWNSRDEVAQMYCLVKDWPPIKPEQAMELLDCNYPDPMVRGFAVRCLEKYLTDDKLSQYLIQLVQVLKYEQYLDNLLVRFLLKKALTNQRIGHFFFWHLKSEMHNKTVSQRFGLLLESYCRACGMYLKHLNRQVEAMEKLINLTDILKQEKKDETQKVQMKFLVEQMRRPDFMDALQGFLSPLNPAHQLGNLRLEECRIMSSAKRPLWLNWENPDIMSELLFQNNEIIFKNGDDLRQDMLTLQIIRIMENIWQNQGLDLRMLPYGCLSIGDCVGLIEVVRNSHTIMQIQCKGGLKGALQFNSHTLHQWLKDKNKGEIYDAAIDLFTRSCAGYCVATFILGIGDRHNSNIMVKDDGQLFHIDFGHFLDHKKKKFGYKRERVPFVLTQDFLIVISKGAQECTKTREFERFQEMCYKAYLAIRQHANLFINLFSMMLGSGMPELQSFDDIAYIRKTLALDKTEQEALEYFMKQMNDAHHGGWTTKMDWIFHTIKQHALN

SW780 [33] = experiment: Downregulation of c-Raf level in human SW780 cells at 0.2 to 0.5 uM by Western blot analysis; format: functional, cell-based; conditions: dose 0.2-0.5 µM
SW780 [34] = experiment: Induction of apoptosis in human SW780 cells assessed as necrotic cells at 0.2 uM incubated for 24 hrs by Annexin V-FITC/PI staining based flow cytometry (reference value: 92.3 %); format: functional
SW780 [35] = experiment: Downregulation of phosphorylated AKT level in human SW780 cells at 0.2 to 0.5 uM by Western blot analysis; format: functional, cell-based; conditions: dose 0.2-0.5 µM
SW780 [36] = experiment: Downregulation of CDK4 level in human SW780 cells at 0.2 to 0.5 uM by Western blot analysis; format: functional, cell-based; conditions: dose 0.2-0.5 µM
SW780 [37] = experiment: Upregulation of intracellular cathepsin B activity in human SW780 cells in presence of 3-MA; format: functional, cell-based
SW780 [38] = experiment: Downregulation of p62 level in human SW780 cells at 0.2 to 0.5 uM by Western blot analysis; format: functional, cell-based; conditions: dose 0.2-0.5 µM
SW780 [39] = experiment: Induction of apoptosis in human SW780 cells assessed as viable cells at 0.5 uM incubated for 24 hrs by Annexin V-FITC/PI staining based flow cytometry (reference value: 92.3 %); format: functional; conditions: read-out: Activity
[40] = molecular target: T2, Serine/threonine-protein kinase mTOR; experiment: Inhibition of mTOR (unknown origin) at 100 nM by kinase profiling assay relative to control
J82 [41] = experiment: Antitumor activity against human J82 cells xenografted in nude Balb/c mouse assessed as tumor growth inhibition at 30 mg/kg, po administered everyday for 17 days; format: functional, organism-based; conditions: time 17.0 day
SW780 [42] = experiment: Upregulation of cleaved caspase-3 level in human SW780 cells at 0.2 to 0.5 uM by Western blot analysis; format: functional, cell-based; conditions: dose 0.2-0.5 µM

CC(C)c1cc(C(=O)N2CCc3c(sc4nc(-c5ccc(NC(=O)Nc6ccc(F)c(Cl)c6)cc5)nc(N5CCOCC5)c34)C2)c(O)cc1O
Activity (SW780 [1]): Active
viability at 0.2 µM (SW780 [2]): 87.6%
Activity (SW780 [3]): 5.01%
Activity (SW780 [4]): Active
IC50 (Heat shock protein HSP90 [5]): 69 nM
Activity (J82 [6]): Active
Activity (SW780 [7]): 3.29%
Activity (SW780 [8]): Active
Activity (SW780 [9]): 4.77%
Activity (SW780 [10]): 9.23%
IC50 [11]: 29 nM
Activity (SW780 [12]): Dose-Dependent Effect
IC50 (SW780 [13]): 160 nM
Activity (SW780 [14]): Active
inhibition at 1 µM (SW780 [15]): 93.8%
inhibition at 1 µM (T-24 [16]): 91.7%
Activity (SW780 [17]): Active
Activity (SW780 [18]): Active
Activity (SW780 [19]): Active
Activity (J82 [20]): Active
inhibition (Heat shock protein HSP90 [21]): 83.3%
Activity (J82 [22]): Active
viability at 0.5 µM (SW780 [23]): < 40%
IC50 (J82 [24]): 360 nM
Activity (SW780 [25]): 2.31%
Activity [26]: Non-Toxic
inhibition at 1 µM (J82 [27]): 79.3%
Activity (SW780 [28]): inactive
Activity (SW780 [29]): Active
Activity (SW780 [30]): inactive
IC50 (T-24 [31]): 410 nM
IC50 [32]: 4980 nM
Activity (SW780 [33]): Active
Activity (SW780 [34]): 4.38%
Activity (SW780 [35]): Active
Activity (SW780 [36]): Active
Activity (SW780 [37]): inactive
Activity (SW780 [38]): Active
viability at 0.5 µM (SW780 [39]): 83.5%
inhibition [40]: 83.1%
inhibition (J82 [41]): Active
Activity (SW780 [42]): Active
